Measured values: article PMC6053381, “Novel 2-phenyloxypyrimidine derivative induces apoptosis and autophagy via inhibiting PI3K pathway and activating MAPK/ERK signaling in hepatocellular carcinoma cells” (Scientific Reports, 2018)
Read-outs that look alike come from different tables or passages of the source.

What was measured:
PDGFRα = PDGFRα (Homo sapiens, UniProt P16234); assay: PDGFR kinase assay, Caliper microfluidic mobility shift; assay type: biochemical; settings: compound at 1 µM, averages of two separate experiments
Protocol: (§1) In vitro inhibitory activities of all compounds at 1 μM against PDGFRα and PDGFRβ were evaluated using Caliper microfluidic mobility shift technology. […] At the same concentration, only E5 inhibited greater than 50% of PDGFRβ activity (Fig. 2B).
(§2) PDGFR kinase activity was measured using Caliper microfluidic mobility shift technology. Briefly, 2 μL compound solution (25 μM) in 25% DMSO per well were added into the 384 well microtiter plates. Then, 10 μL per well of enzyme solution (100 mM HEPES, 10 mM MgCl2, Brij35 (30%) 100 μL, 1 mM DTT, 20 ng enzyme) was added. After a brief centrifugation at 1,000 rpm, the kinase reactions were started by addition of 38 μL per well of peptide/ATP-solution (40 μM ATP, 6.5 μM peptide 5′-FAM-KKKKEEIYFFF-NH2, Tris-HCl buffer, pH 7.0) incubated at 30 °C for 60 min and stopped by the addition of 20 μL 35 mM EDTA per well. The electrophoretic separation of the phosphorylated and non-phosphorylated peptides was then carried out on LabChip EZ Reader II (Caliper Life Sciences). All other kinase reactions were carried out as previously reported using the Kinase-Glo Plus or ADP-Glo assay. Kinase inhibition rates were calculated per manufacturer’s instructions.

PDGFRβ = PDGFRβ (Homo sapiens, UniProt P09619); assay: as above; assay type: biochemical; settings: compound at 1 µM, averages of two separate experiments
Protocol: as §1, §2

BEL7404 = assay: CellTiter-Glo luminescent cell viability assay; assay type: cell-based; settings: read-out: Anti-proliferative activity IC50 BEL7404
Description: (§3) The in vitro antitumor activity of all compounds was screened against six HCC cell lines by CellTiter-Glo luminescent cell viability assay as described earlier. […] After a comprehensive assessment of PDGFR inhibition, cellular activity against HCC cells as well as potential druggability, E5 was chosen to investigate its kinase profiling, antitumor activity and molecular mechanism in the following study. […]
(§4) authenticated by using short tandem repeat (STR) matching analysis. No mycoplasma contamination was detected.
(§5) CellTiter-Glo luminescent cell viability assay
(§6) For experiments hepatocellular carcinoma cells were seeded at 4000 cells per well in 96-well plates. After overnight incubation, solution of compounds in DMSO at various concentrations were added to the cells and further incubated for 120 h. Cell viability was measured with the CellTiter-Glo Luminescent Cell Viability Assay (Promega) according to the manufacturer’s instructions. Luminescence was measured using an EnVision Multilabel Plate Reader (Perkin-Elmer). The cytotoxicity of the compounds was expressed as the percent age of luminescence relative to that of untreated cells . The concentration of compound producing 50% of cell proliferation (IC50) was calculated by nonlinear regression analysis of the response-concentration (log) curve, using the Graph-Pad Prism program package (Graph Pad Software; San Diego, CA). Results are expressed as the means of two […] experiments

Hep3B = assay: CellTiter-Glo luminescent cell viability assay; assay type: cell-based; settings: 120 h incubation, read-out: Anti-proliferative activity IC50 Hep3B
Description: as §3, §4, §5, §6

MHCC97-L = assay: CellTiter-Glo luminescent cell viability assay; assay type: cell-based; settings: 120 h incubation, read-out: Anti-proliferative activity IC50 MHCC97-L
Description: as §3, §4, §5, §6

QGY-7703 = assay: CellTiter-Glo luminescent cell viability assay; assay type: cell-based; settings: read-out: Anti-proliferative activity IC50 QGY-7703
Description: as §3, §4, §5, §6

SMMC-7721 = assay: CellTiter-Glo luminescent cell viability assay; assay type: cell-based; settings: read-out: Anti-proliferative activity IC50 SMMC-7721
Description: as §3, §4, §5, §6

SNU368 = assay: CellTiter-Glo luminescent cell viability assay; assay type: cell-based; settings: 120 h incubation, read-out: Anti-proliferative activity IC50 SNU368
Description: as §3, §4, §5, §6

PDGFRα, sequence (P16234 24-1089): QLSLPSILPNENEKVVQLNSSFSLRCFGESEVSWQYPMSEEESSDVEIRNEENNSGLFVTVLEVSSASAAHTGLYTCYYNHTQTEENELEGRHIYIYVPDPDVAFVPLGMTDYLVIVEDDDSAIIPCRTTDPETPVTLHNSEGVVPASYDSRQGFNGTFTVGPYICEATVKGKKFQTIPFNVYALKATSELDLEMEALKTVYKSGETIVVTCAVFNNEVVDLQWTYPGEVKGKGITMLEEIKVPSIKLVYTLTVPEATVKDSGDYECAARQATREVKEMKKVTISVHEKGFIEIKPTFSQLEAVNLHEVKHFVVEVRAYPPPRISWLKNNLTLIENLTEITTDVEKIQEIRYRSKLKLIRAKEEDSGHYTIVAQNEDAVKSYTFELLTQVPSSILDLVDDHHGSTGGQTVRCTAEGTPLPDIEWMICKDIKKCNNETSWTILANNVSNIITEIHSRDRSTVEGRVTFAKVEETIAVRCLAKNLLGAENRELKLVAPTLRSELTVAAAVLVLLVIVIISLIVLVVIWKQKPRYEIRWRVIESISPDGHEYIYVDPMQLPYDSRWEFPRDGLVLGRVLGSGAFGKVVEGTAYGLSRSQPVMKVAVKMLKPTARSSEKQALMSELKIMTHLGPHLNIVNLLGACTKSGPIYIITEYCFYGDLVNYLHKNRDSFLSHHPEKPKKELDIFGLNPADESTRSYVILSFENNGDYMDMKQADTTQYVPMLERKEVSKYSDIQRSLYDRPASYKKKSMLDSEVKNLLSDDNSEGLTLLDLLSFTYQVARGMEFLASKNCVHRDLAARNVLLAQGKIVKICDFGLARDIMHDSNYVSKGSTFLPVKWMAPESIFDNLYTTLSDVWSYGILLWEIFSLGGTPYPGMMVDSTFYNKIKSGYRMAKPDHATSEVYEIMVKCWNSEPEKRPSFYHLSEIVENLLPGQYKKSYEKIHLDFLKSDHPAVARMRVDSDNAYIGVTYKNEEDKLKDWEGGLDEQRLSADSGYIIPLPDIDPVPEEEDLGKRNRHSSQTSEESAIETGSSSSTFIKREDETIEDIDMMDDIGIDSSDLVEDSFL
PDGFRβ, sequence (P09619 33-1106): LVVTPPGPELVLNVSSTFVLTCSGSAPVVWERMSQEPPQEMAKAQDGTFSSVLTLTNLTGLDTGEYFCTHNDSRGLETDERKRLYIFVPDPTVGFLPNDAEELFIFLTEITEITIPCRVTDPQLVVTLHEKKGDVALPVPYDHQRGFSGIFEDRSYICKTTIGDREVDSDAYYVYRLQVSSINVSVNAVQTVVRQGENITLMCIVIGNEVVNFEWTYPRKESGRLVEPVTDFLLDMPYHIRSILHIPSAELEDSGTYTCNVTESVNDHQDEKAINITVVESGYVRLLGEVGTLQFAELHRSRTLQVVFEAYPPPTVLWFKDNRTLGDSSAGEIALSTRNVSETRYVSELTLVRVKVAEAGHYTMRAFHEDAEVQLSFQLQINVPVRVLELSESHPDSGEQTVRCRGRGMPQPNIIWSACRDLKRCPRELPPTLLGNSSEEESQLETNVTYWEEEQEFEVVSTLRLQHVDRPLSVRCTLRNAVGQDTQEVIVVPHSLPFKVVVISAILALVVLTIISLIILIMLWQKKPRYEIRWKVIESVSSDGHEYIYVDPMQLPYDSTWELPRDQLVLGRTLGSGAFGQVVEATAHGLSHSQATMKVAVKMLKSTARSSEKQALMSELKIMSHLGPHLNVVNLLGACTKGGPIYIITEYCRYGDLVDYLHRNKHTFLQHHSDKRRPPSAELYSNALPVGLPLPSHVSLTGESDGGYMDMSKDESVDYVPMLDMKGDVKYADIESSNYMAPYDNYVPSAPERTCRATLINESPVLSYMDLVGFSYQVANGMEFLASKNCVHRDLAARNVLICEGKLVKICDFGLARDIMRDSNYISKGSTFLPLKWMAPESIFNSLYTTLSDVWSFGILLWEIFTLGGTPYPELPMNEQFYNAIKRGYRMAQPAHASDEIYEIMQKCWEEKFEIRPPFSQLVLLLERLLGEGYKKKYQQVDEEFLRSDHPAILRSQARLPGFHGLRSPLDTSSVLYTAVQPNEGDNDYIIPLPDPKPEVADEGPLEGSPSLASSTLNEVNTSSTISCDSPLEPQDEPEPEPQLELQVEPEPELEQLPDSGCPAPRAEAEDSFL

| Structure (SMILES) | Inhibition effect (%) PDGFRα (PDGFRα) | Inhibition effect (%) PDGFRβ (PDGFRβ) | IC50 (BEL7404; 120 h incubation) | IC50 (Hep3B) | IC50 (MHCC97-L) | IC50 (QGY-7703; 120 h incubation) | IC50 (SMMC-7721; 120 h incubation) | IC50 (SNU368) | inhibition at 1 µM (PDGFRα; read-out: Inhibition effect (%) PDGFRα) | inhibition at 1 µM (PDGFRβ; read-out: Inhibition effect (%) PDGFRβ) | IC50 (BEL7404; Homo sapiens, BEL-7404, 120 h incubation) | IC50 (Hep3B; Homo sapiens, Hep3B) | IC50 (MHCC97-L; MHCC97L) | IC50 (QGY-7703; Homo sapiens, QGY-7703, 120 h incubation) | IC50 (SMMC-7721; Homo sapiens, SMMC-7721, 120 h incubation) |
| --- | --- | --- | --- | --- | --- | --- | --- | --- | --- | --- | --- | --- | --- | --- | --- |
| Cc1ccc(NC(=O)c2ccccc2)cc1Oc1nccc(-c2ccccc2)n1 [B1] | 2.32% | 12.87% | 10.5 µM | 2.7 µM | 4.9 µM | 5.8 µM | 2.7 µM | 17.7 µM |  |  |  |  |  |  |  |
| Cc1ccc(NC(=O)c2ccccc2)cc1Oc1nccc(-c2ccco2)n1 [D1] | 13.74% | 28.93% | 48.7 µM | 11.4 µM | 1.6 µM | 2.5 µM | 1.5 µM | 37.3 µM |  |  |  |  |  |  |  |
| Cc1ccc(NC(=O)c2ccco2)cc1Oc1nccc(-c2cc3ccccc3n2C)n1 [F3] | 24.14% | 25.67% | 15.6 µM | 41.8 µM | > 200 µM | 97.7 µM | 18.4 µM | 26.5 µM |  |  |  |  |  |  |  |
| Cc1ccc(NC(=O)c2cccc(Cl)c2)cc1Oc1nccc(-c2ccccc2)n1 [B7] | 31.49% | 16.63% | 18.3 µM | 15.5 µM | > 200 µM | 25.8 µM | 17 µM | 14 µM |  |  |  |  |  |  |  |
| Cc1cccc(C(=O)Nc2ccc(C)c(Oc3nccc(-c4ccco4)n3)c2)c1 [D4] | 45.70% | 46.00% | 4.5 µM | 6 µM | 3.4 µM | 7.5 µM | 3.7 µM | 23.2 µM |  |  |  |  |  |  |  |
| Cc1ccc(N)cc1Oc1nccc(-c2cccnc2)n1 [A1] |  |  |  |  |  |  |  | 85.7 µM | 39.1% | 21.4% | 10.8 µM | 15.8 µM | 15.1 µM | 24.5 µM | 13.6 µM |
| Cc1ccc(NC(=O)CN2CCOCC2)cc1Oc1nccc(-c2cc3ccccc3o2)n1 [E7] | 18.56% | 19.39% | 5.9 µM | 9 µM | 59.1 µM | 10.3 µM | 4.6 µM | 14.7 µM |  |  |  |  |  |  |  |
| Cc1ccc(NC(=O)c2ccncc2)cc1Oc1nccc(-c2ccccc2)n1 [B12] | 25.66% | 20.65% | 13.4 µM | 17.7 µM | 44 µM | 27.6 µM | 8.8 µM | 18 µM |  |  |  |  |  |  |  |
| CCC(=O)Nc1ccc(C)c(Oc2nccc(-c3cc4ccccc4n3C)n2)c1 [F2] | 12.21% | -4.46% | 19 µM | 33.8 µM | 31.8 µM | 51.9 µM | 27.9 µM | 29.1 µM |  |  |  |  |  |  |  |
| Cc1ccc(C(=O)Nc2ccc(C)c(Oc3nccc(-c4ccccc4)n3)c2)cc1 [B3] | 23.12% | 26.17% | 3.7 µM | 4.6 µM | 6.1 µM | 7.3 µM | 6 µM | 12.8 µM |  |  |  |  |  |  |  |
| Cc1ccc(NC(=O)c2cccs2)cc1Oc1nccc(-c2cccc3ccccc23)n1 [C5] | 16.27% | 5.08% | 20.8 µM | 17 µM | 28 µM | 35.2 µM | 16.8 µM | 28.4 µM |  |  |  |  |  |  |  |
| Cc1ccc(NC(=O)c2ccc(F)cc2)cc1Oc1nccc(-c2cccnc2)n1 [A10] | 40.63% | 30.94% | 28.2 µM | 20.1 µM | 35.7 µM | 43.4 µM | 21.1 µM | 38.7 µM |  |  |  |  |  |  |  |
| Cc1ccc(NC(=O)c2ccc(F)cc2)cc1Oc1nccc(-c2ccccc2)n1 [B10] | 19.57% | 15.63% | 8.1 µM | 5.8 µM | 6.3 µM | 10.9 µM | 3.9 µM | 12.6 µM |  |  |  |  |  |  |  |
| CC(=O)Nc1ccc(C)c(Oc2nccc(-c3cc4ccccc4o3)n2)c1 [E1] | 1.56% | 1.82% | 10.1 µM | 86.8 µM | 5.7 µM | 0.3 µM | 0.3 µM | 8.5 µM |  |  |  |  |  |  |  |
| Cc1ccc(NC(=O)c2cccc(Cl)c2)cc1Oc1nccc(-c2ccco2)n1 [D5] | 51.79% | 43.49% | 12.4 µM | 11.2 µM | 14.7 µM | 22.5 µM | 12.4 µM | 24 µM |  |  |  |  |  |  |  |
| Cc1ccc(NC(=O)CN2CCN(C)CC2)cc1Oc1nccc(-c2cc3ccccc3o2)n1 [E6] | -1.24% | -0.44% | 38.1 µM | 11.7 µM | 16.7 µM | 29.5 µM | 27.7 µM | 31.6 µM |  |  |  |  |  |  |  |
| Cc1ccc(NC(=O)c2ccoc2)cc1Oc1nccc(-c2cccc3ccccc23)n1 [C4] | 13.73% | 2.83% | 8.8 µM | 22.9 µM | 96.4 µM | 14.9 µM | 12 µM | 15.8 µM |  |  |  |  |  |  |  |
| CCC(=O)Nc1ccc(C)c(Oc2nccc(-c3cccc4ccccc34)n2)c1 [C2] | 33.78% | 2.07% | 48.2 µM | 36.3 µM | 111 µM | 120 µM | 29.5 µM | 55.9 µM |  |  |  |  |  |  |  |
| Cc1ccc(NC(=O)c2cccnc2)cc1Oc1nccc(-c2cccnc2)n1 [A11] | 42.91% | 6.84% | 74.2 µM | 105 µM | 89.3 µM | 252 µM | 79.7 µM | 94.6 µM |  |  |  |  |  |  |  |
| Cc1ccc(NC(=O)c2ccc(Cl)cc2)cc1Oc1nccc(-c2ccccc2)n1 [B6] | 12.21% | 18.64% | 13.4 µM | 7.9 µM | 10.5 µM | 15.4 µM | 9.7 µM | 15 µM |  |  |  |  |  |  |  |
| COc1ccc(C(=O)Nc2ccc(C)c(Oc3nccc(-c4cccnc4)n3)c2)cc1 [A5] | 45.20% | 33.70% | 15.6 µM | 23.3 µM | 31.3 µM | 40.5 µM | 23.5 µM | 49.5 µM |  |  |  |  |  |  |  |
| Cc1ccc(NC(=O)c2ccncc2)cc1Oc1nccc(-c2cccnc2)n1 [A12] | 43.17% | 31.94% | 134 µM | 130 µM | 281 µM | 170 µM | 113 µM | 287 µM |  |  |  |  |  |  |  |
